The record followed here is article PMC2790557 (Biochemistry, 2009).

This experiment deals with CK2 (casein kinase II).

As for `OC[C@H]1O[C@@H](n2cnc3cc(Cl)c(Cl)cc32)[C@H](O)[C@@H]1O` [DRB, 5,6-Dichloro-1-(β-D-ribofuranosyl)benzimidazole], the IC50 was about 10 µM.
